Reference: patent publication US20240140943A1, “COMPETITIVE AND NONCOMPETITIVE INHIBITORS OF THE MUSCARINIC ACETYLCHOLINE RECEPTOR M5” (Vanderbilt University, priority 2021, published 2024)
pIC50: −log10 of the molar value.

Biological target: T1, human M5 receptors (hM5) (Homo sapiens, UniProt P08912)
T1 construct: expressed in transfected cells
T1 sequence (P08912 1-532): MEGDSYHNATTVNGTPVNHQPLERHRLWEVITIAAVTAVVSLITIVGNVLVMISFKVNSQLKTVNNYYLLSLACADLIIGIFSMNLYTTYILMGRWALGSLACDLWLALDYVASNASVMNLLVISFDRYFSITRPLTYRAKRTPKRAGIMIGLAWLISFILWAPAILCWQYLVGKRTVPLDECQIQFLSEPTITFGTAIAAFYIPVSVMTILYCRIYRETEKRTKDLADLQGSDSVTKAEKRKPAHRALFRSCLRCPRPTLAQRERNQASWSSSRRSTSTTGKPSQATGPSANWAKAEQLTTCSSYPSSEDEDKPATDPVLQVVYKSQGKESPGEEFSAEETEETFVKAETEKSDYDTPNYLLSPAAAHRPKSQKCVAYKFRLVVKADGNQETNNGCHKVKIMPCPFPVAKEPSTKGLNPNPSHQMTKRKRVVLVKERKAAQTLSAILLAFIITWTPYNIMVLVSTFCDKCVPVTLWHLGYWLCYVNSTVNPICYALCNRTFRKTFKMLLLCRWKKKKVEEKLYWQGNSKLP
Assay: Cell-based functional calcium mobilization assay of mAChR M5 activity
Conditions: CHO cells stably expressing hM5; for pIC50: calcium mobilization, inhibition of EC80 acetylcholine response; for EC80 MIN: minimum response at EC80 acetylcholine addition, normalized to maximum acetylcholine response
Experimental: All functional cell-based assays were performed essentially as previously described (Mario et al., Mol. Pharm. 2009, 75(3), 577-588; Brady et al., J. Pharm. & Exp. Ther. 2008, 327, 941-953). Initial, single point (10 μM) compound characterization was performed in stable Chinese Hamster Ovary (CHO) cell lines constitutively expressing human M5 receptors. These were plated at 15,000 cells per 20 μL per well in Greiner 384-well black-walled, TC-treated, clear-bottomed plates (Fisher) in Ham's F12 medium supplemented with 10% FBS and 20 mM HEPES. Cells were incubated overnight at 37° C. under 5% CO2. The following day, medium was exchanged with assay buffer (Hank's Balanced Salt Solution supplemented with 20 mM HEPES and 2.5 mM Probenecid, pH 7.4) leaving 20 μL of assay buffer in each well. This was followed by the addition of 20 μL of 2.3 μM of Fluo-4 AM (Invitrogen) in assay buffer (final concentration 1.15 μM). The cells were then incubated 50 minutes at 37° C. under 5% CO2. The assay buffer plus dye was then exchanged with fresh assay buffer leaving a volume of 20 μL in each well. Test compounds were diluted into assay buffer to a 2× (20 μM) concentration in 0.2% dimethylsulfoxide (DMSO) in columns 3-22 with matching DMSO concentration in columns 1, 2, 23, and […]; compounds were added to the assay for a final concentration of 10 μM and a final DMSO concentration of 0.1%. Acetylcholine (Sigma-Aldrich) was prepared to provide 5× concentrations of EC20, EC80, and ECmax in the triple-addition assay, providing a signal window to view agonism, potentiation, and inhibition of the acetylcholine response as well as a means to normalize to the maximum acetylcholine response.
Either an FDSS (Hamamatsu) or Panoptic (WaveFront Biosciences) kinetic imaging plate reader was used for assay execution and measurement of calcium flux. After establishing baseline fluorescence, test compounds (20 μL) were added to the cells using the reader's integrated pipettor and allowed to equilibrate for 140 seconds before addition of the EC20 concentration of acetylcholine (10 μL) along with vehicle in selected DMSO-only wells in the outer two columns. The EC80 concentration of acetylcholine (10 μL) was added 125 seconds after the EC20 addition along with ECmax concentration in the wells receiving vehicle in the second addition. The raw fluorescence data from each well was normalized to the corresponding initial fluorescence reading (static ratio). The maximum fluorescence value following each addition was determined and the minimum value within that same timeframe was subtracted for each well then normalized to the average of the ECmax maximum-minimum response, providing a % AChmax value for each addition for each well. The single point values represent mean values determined within the EC80 addition timeframe obtained from at least three independent determinations performed in triplicate or greater (error bars represent +/−SEM) unless otherwise specified.
Further characterization of test compounds (compound potency and mAChR subtype-selectivity) was performed on the FDSS with calcium mobilization assays performed as previously described (Mario et al., 2009; Brady et al., 2008) and in a format similar to that described above using the same reagents. CHO cells stably expressing hM1, hM2/Gqi5, hM3, hM4/Gqi5, hM5, rM1, rM2/Gqi5, rM3, rM4/Gqi5, or rM5 were plated in the manner described above. A ten-point concentration range of test compound was serial diluted in assay buffer to 2× final concentration and acetylcholine was diluted in assay buffer to 5× of the EC20 and EC80 concentrations, determined empirically and 5× maximal (2 mM final concentration) stock concentrations. FDSS protocols were carried out as described above; the static ratio was calculated and the minimum response subtracted from the maximum response within the timeframe of each addition. This max-min response was then normalized to the maximum acetylcholine response. […]

Question: Which results are given for `Cc1nnc(S(=O)(=O)[C@H]2CC[C@H](c3cn4ncnc4cc3Cl)CC2)s1` [Compound 1, trans-2-((4-(7-chloro-[1,2,4]triazolo[1,5-a]pyridin-6-yl)cyclohexyl)sulfonyl)-5-methyl-1,3,4-thiadiazole]?
Answer: pIC50: 6.73; EC80 MIN: 3%

Question: With `Cc1nnc(S(=O)(=O)[C@H]2CC[C@H](c3cn4ncnc4cc3Cl)CC2)o1` [Compound 2, trans-2-((4-(7-chloro-[1,2,4]triazolo[1,5-a]pyridin-6-yl)cyclohexyl)sulfonyl)-5-methyl-1,3,4-oxadiazole] as the molecule, how does the pIC50 read?
Answer: Its pIC50 is 6.27.

Question: And the “EC80 MIN” value?
Answer: Its value is 3%.

Question: How did the pIC50 turn out when `Cc1nnc(S(=O)(=O)[C@H]2CC[C@H](c3cn4ncnc4cc3Cl)CC2)n1C` [Compound 3, trans-7-chloro-6-(4-((4,5-dimethyl-4H-1,2,4-triazol-3-yl)sulfonyl)cyclohexyl)-[1,2,4]triazolo[1,5-a]pyridine] was run?
Answer: Its pIC50 is 7.48.

Question: What about the “EC80 MIN” value of the same molecule?
Answer: Its value is 2%.

Question: With `Cc1nnc(S(=O)(=O)[C@H]2CC[C@@H](c3cn4ncnc4cc3C)CC2)o1` [Compound 4, cis-2-methyl-5-((4-(7-methyl-[1,2,4]triazolo[1,5-a]pyridin-6-yl)cyclohexyl)sulfonyl)-1,3,4-oxadiazole] as the molecule, how does the pIC50 read?
Answer: The pIC50 was < 5.00.

Question: And the “EC80 MIN” value?
Answer: The value was 55%.
